From the Kinase Knowledgebase extract (Sharma et al. 2016) come the findings set out here.

Assay [1] concerns the target EGFR (human), P00533 [WT].
A further assay has as its target EGFR (human) (UniProt P00533). Particulars: hcc827.

Sequence of EGFR (human), P00533 [WT] (P00533 whole entry, looked up): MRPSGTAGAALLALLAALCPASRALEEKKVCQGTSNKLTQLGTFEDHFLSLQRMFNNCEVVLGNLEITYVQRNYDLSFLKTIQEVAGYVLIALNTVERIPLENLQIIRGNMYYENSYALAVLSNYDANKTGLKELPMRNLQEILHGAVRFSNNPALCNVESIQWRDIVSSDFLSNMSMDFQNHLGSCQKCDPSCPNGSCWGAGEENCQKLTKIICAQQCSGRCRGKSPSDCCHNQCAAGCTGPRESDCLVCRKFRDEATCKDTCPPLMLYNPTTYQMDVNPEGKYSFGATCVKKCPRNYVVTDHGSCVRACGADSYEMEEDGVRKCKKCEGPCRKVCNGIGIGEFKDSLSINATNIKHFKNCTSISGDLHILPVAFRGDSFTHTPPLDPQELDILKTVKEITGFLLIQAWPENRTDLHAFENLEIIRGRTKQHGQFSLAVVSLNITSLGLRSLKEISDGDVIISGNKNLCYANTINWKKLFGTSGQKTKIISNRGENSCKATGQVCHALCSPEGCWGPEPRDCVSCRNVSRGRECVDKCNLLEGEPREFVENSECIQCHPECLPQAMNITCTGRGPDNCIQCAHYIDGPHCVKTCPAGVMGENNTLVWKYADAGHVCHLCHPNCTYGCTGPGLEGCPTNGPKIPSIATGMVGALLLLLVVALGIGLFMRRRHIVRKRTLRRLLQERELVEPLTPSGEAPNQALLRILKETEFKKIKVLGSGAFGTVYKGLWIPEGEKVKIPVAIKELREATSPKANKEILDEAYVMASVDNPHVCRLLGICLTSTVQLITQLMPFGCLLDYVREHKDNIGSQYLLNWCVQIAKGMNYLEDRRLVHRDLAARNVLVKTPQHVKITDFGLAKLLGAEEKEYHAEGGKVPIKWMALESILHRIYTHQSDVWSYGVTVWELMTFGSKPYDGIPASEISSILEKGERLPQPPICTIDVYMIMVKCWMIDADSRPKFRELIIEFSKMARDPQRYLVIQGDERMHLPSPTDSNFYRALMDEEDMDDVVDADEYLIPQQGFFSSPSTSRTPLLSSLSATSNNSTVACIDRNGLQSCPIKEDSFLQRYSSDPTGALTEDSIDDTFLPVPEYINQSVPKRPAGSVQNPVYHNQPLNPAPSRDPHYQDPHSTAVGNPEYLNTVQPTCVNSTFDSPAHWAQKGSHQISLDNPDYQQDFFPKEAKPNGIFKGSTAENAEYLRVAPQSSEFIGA
Sequence of EGFR (human) (P00533 whole entry, looked up): as above

The IC50 is the concentration that inhibits the measured activity by half. Higher therefore signals lower potency. Regarding `CN(C)C/C=C/C(=O)N1CCc2c(sc3ncnc(N[C@H](CO[Si](C)(C)C(C)(C)C)c4ccccc4)c23)C1`, the values for the IC50 (in assay [1]; at EGFR (human)) were 60 to 100 nM and 301 to 999 nM, respectively. In turn, `OC[C@@H](Nc1ncnc2sc(-c3ccccc3)c(Cl)c12)c1ccccc1` returned an IC50 in assay [1] of 101 to 900 nM.

As to `OC[C@@H](Nc1ncnc2oc(-c3ccccc3)c(Cl)c12)c1ccccc1`, in assay [1], the IC50 was 101 to 900 nM.

On to `CCN(CC)C/C=C/C(=O)N1CCc2c(sc3ncnc(N[C@H](COC)c4ccccc4)c23)C1`, for which the IC50 in assay [1] fell in the range of 60 to 100 nM; against EGFR (human) it was 1 to 99 nM. For `CC[C@@H](Nc1ncnc2sc3c(c12)CCCC3)c1ccccc1` the same measures were 101 to 900 nM and 301 to 999 nM. For `C=CC(=O)Nc1ccc(-c2c(-c3ccccc3)oc3ncnc(N[C@H](C)c4ccccc4)c23)cc1` the same measures were 101 to 900 nM and 1 to 99 nM. Turning to `O=C(O)[C@@H](Nc1ncnc2sc(-c3ccccc3)cc12)c1ccccc1`, the IC50 in assay [1] lay within 101 to 900 nM. With `CC(=O)Nc1cccc(-c2c(-c3ccccc3)oc3ncnc(N[C@H](CO)c4ccccc4)c23)c1`, the IC50 in assay [1] is 101 to 900 nM; against EGFR (human) it was 100 to 300 nM. For `CN(C)C/C=C/C(=O)N1CCc2c(sc3ncnc(N[C@H](COCc4ccncc4)c4ccccc4)c23)C1`, in that order: under 59 nM and 1 to 99 nM. For `C[C@@H](Nc1ncnc2sc3c(c12)CCN(C(=O)/C=C/CN=[N+]=[N-])C3)c1ccccc1`, in that order: under 59 nM and 1 to 99 nM. With `CC#CC(=O)Nc1cccc(-c2c(-c3ccccc3)oc3ncnc(N[C@H](COC)c4ccccc4)c23)c1`, the IC50 in assay [1] is 101 to 900 nM. For the compound `CN(C)C/C=C/C(=O)N1CCc2c(sc3ncnc(N[C@H](COCc4ccc(F)cc4)c4ccccc4)c23)C1`, the IC50 in assay [1] is under 59 nM; on EGFR (human) it was 1 to 99 nM. For `C[C@@H](Nc1ncnc2sc3c(c12)CCN(C(=O)/C=C/CN(C)CCO)C3)c1ccccc1`, in that order: under 59 nM and 1 to 99 nM.

As for `CC[C@@H](Nc1ncnc2oc(-c3ccccc3)cc12)c1ccccc1`, at EGFR (human), the IC50 was 301 to 999 nM. With `O=C(O)/C=C\C(=O)N1CCc2c(sc3ncnc(N[C@H](CO)c4ccccc4)c23)C1`, the IC50 in assay [1] fell in the range of 101 to 900 nM.

Turning to `COc1ccc(-c2oc3ncnc(N[C@H](CO)c4ccccc4)c3c2-c2ccc(OC)cc2)cc1`, in assay [1], the IC50 is 60 to 100 nM.

`CCN(C/C=C/C(=O)N1CCc2c(sc3ncnc(N[C@H](C)c4ccccc4)c23)C1)CCO`: the IC50 in assay [1] is under 59 nM; at EGFR (human), 1 to 99 nM. On to `CCC[C@@H](Nc1ncnc2sc3c(c12)CCN(C(=O)/C=C/CN(C)C)C3)c1ccccc1`, for which the IC50 in assay [1] is under 59 nM; against EGFR (human), 1 to 99 nM. Consider `C[C@@H](Nc1ncnc2sc3c(c12)CCN(C(=O)/C=C/CN(C)C)C3)c1ccc(Br)cc1`, for which the IC50 in assay [1] was under 59 nM; against EGFR (human) it was 1 to 99 nM. Turning to `C=CC(=O)Nc1ccc(-c2nc3c(N[C@H](CO)c4ccccc4)ncnc3o2)cc1`, the IC50 in assay [1] is 101 to 900 nM.

On to `OC[C@@H](Nc1ncnc2sc3c(c12)CCCC3)c1ccccc1`, for which the IC50 in assay [1] was 101 to 900 nM; against EGFR (human), 100 to 300 nM. In turn, `COCCN(C)C/C=C/C(=O)N1CCc2c(sc3ncnc(N[C@H](CO)c4ccccc4)c23)C1` came in with an IC50 in assay [1] of under 59 nM. Same read-out and setting: next, `O=C(O)[C@@H](Nc1ncnc2sc3c(c12)CCCC3)c1ccccc1`: 101 to 900 nM.

`CCOC(=O)[C@@H](Nc1ncnc2oc(-c3ccccc3)c(-c3ccccc3)c12)c1ccccc1` displayed an IC50 on EGFR (human) of 301 to 999 nM. In the case of `COC[C@@H](Nc1ncnc2sc3c(c12)CCN(C(=O)/C=C/CN(C)C)C3)c1ccccc1`, in assay [1], the IC50 was under 59 nM. Take `C=CC(=O)N1CCc2c(sc3ncnc(N[C@H](CO[Si](C)(C)C(C)(C)C)c4ccccc4)c23)C1`: the IC50 in assay [1] lay in the range of 101 to 900 nM; at EGFR (human), 301 to 999 nM. Turning to `OC[C@@H](Nc1ncnc2oc(-c3ccccc3)c(-c3ccco3)c12)c1ccccc1`, the IC50 lay in the range of 101 to 900 nM in assay [1] and 301 to 999 nM on EGFR (human). Take `CN(C)C/C=C/C(=O)N1CCc2c(sc3ncnc(N[C@H](CCO)c4ccccc4)c23)C1`: the IC50 was under 59 nM in assay [1] and 1 to 99 nM against EGFR (human).

`CCN(CC)C/C=C/C(=O)N1CCc2c(sc3ncnc(N[C@H](CCO)c4ccccc4)c23)C1` returned an IC50 in assay [1] of under 59 nM.

As for `CN(C)C/C=C/C(=O)N1CCc2c(sc3ncnc(N[C@H](CO)Cc4ccccc4)c23)C1`, the 50% inhibitory concentration (IC50) is 101 to 900 nM in assay [1] and 1 to 99 nM against EGFR (human). In the case of `C[C@@H](Nc1ncnc2sc3c(c12)CCN(C(=O)/C=C/CNc1ccccc1)C3)c1ccccc1`, the figures for the IC50 (in assay [1]; at EGFR (human)) were 101 to 900 nM and 301 to 999 nM, respectively.

Turning to `OC[C@@H](Nc1ncnc2oc(-c3ccccc3)c(-c3ccccc3)c12)c1ccccc1`, the IC50 in assay [1] fell in the range of 101 to 900 nM; against EGFR (human), 301 to 999 nM.

Take `CC(=O)OC/C=C/C(=O)N1CCc2c(sc3ncnc(N[C@H](C)c4ccccc4)c23)C1`: the IC50 in assay [1] is under 59 nM; on EGFR (human), 1 to 99 nM. `C/C=C/C(=O)N1CCc2c(sc3ncnc(N[C@H](COCc4cccc(F)c4)c4ccccc4)c23)C1`: the IC50 in assay [1] fell in the range of 60 to 100 nM. For the compound `C=CC(=O)Nc1cccc(-c2csc3ncnc(N[C@H](CO)c4ccccc4)c23)c1`, the IC50 in assay [1] is under 59 nM; on EGFR (human) it was 1 to 99 nM.
